Test [1] deals with Human vascular smooth muscle cells (SMC). Kind of test: Inhibition of vascular smooth muscle cell proliferation (PDGF-stimulated, WST-1). Type of test: cell-based. Particulars: 5 ng/ml PDGF, 48-hr treatment. The protocol: Human vascular smooth muscle cells (SMC, Bio-whittaker, USA) were plated in 100 μl of DMEM (Dulbelcco's Modified Eagle Medium) containing 10% FBS (fetal bovine serum) in 96-well plates at 5×10^3 cells/well and cultured for 24 hr at 37° C. under 10% CO2 atmosphere. Afterwards, cells were starved in 100 μl of DMEM containing 0.2% FBS for 72 hr. Then, cells were incubated in 100 μl of DMEM containing 5% FBS supplemented with 5 ng/ml PDGF (platelet derived growth factor, ProSpec, Israel) and then treated with indicated concentrations of chemicals in DMSO synthesized in Examples. The final concentration of DMSO was adjusted to 1%. After 48-hr treatment, medium was changed with a fresh 5% FBS DMEM and 10 μl/well of premix WST-1 (Takara, Japan) was added for analyzing cell proliferation, followed by 2-hr incubation. Using a ELISA microplate reader, the OD (optical density) values at 450 nm were measured. Compared with no-treatment control, the compounds of this invention were evaluated in terms of their cell proliferation activity.
For orientation: Tetrazolium assays rely on reduction of a dye to a coloured formazan, in cell work by metabolically active cells.

Test [2] has as its system NCI-H460 (lung cancer cell line). In words: Cytotoxicity to tumor cells (WST-1), NCI-H460. Type of test: cell-based. The procedure: (§1) To verify whether the compounds of this invention could be used as anticancer agents, their cytotoxicity against tumor cells were examined. NCI-H460 (lung cancer cell line, ATCC, USA) and MDA-MB 435S (breast cancer cell line, ATCC, USA) were used. The cancer cell lines were plated in 100 μl of DMEM (Dulbelcco's Modified Eagle Medium) containing 10% FBS (fetal bovine serum) in 96-well plates at 5×10^3 cells/well and cultured for 24 hr at 37° C. under 10% CO2 atmosphere. After change of medium with 100 μl of DMEM containing 5% FBS, cells were treated with the indicated concentration of the compounds in DMSO. The final concentration of DMSO in medium was adjusted to 1%. Following 48-hr treatment, medium was changed with a fresh 5% FBS DMEM and 10 μl/well of premix WST-1 (Takara, Japan) was added for analyzing cell proliferation, followed by 2-hr incubation. Using a ELISA microplate reader, the OD (optical density) values at 450 nm were measured. Compared with no-treatment control, the compounds of this invention were evaluated in terms of their cytotoxicity to cancer cell lines.

The subject of test [3] is MDA-MB 435S (breast cancer cell line). In words: Cytotoxicity to tumor cells (WST-1), MDA-MB 435S. The settings on record: 48-hr treatment. Type of test: cell-based. The protocol:
as §1

The next test has as its system cancer cell lines. Kind of test: Cytotoxicity to tumor cells (WST-1), cancer cell lines collectively. It is filed as cell-based. Particulars: cancer cell lines (NCI-H460, MDA-MB 435S) not distinguished in the sentence; read-out: IC50 against cancer cell lines. The procedure: as §1
Test [4] concerns neointima thickening of balloon-injured left common carotid artery. Kind of test: Inhibition of restenosis using balloon injury of carotid artery. The settings on record: Sprague-Dawley rats, intraperitoneal, 2 weeks after balloon injury.
Protocol: To examine restenosis inhibition effects of the present compounds, rat restenosis models were constructed using balloon injury of carotid artery.
Sprague-Dawley male rats with body weights of 350±30 g (12-14 week age, DaehanBiolink, Inc., Korea) were adapted to surrounding environments for one week. For each experiment, 7-10 rats were used. Rats were anesthetized by intraperitoneal administration of a mixture of ketamine (70 mg/kg) and xylazine hydrochloride (33 mg/kg) and their (left common carotid artery, CCA) and branches of internal carotid artery (ICA) and external carotid artery (ECA) were exposed by neck central compartment dissection. The proximal portion of the left common carotid artery and distal portion of the internal carotid artery were temporarily ligated with suture to block bloodstream, the distal portion of the external carotid artery was ligated. The wall of the external carotid artery between both sutures was partially dissected. 2F Fogarty balloon (Edwards Lifesciences) was inserted and the ligation of the left common carotid artery was then unraveled, followed by advancing the balloon along the direction of the ascending aorta. The balloon was inflated and pulled out at the extent that resistance was allowed at the terminal portion of the common carotid artery of the aortic arch, such that the lesion of the left common carotid artery was induced. […]
Setting [5] is: Homo sapiens, NCI-H460, 48-hr treatment.

Where only a bound is given, the exact number is not on record here.

One may read the IC50 as the point on the concentration scale where inhibition reaches its midpoint. As for `CC(=O)c1c(Nc2cccc(F)c2)[nH]c2c(Cl)ccc(F)c2c1=O` [BD009], the 50% inhibitory concentration (IC50) in test [1] was determined as 0.625 µM; in test [2] (48-hr treatment), 2.6 µM; in test [3], 5.2 µM.

On to `CC(=O)c1c(Nc2ccc(F)c(F)c2F)[nH]c2c(Cl)ccc(C)c2c1=O` [BD003], for which the IC50 in test [2] (48-hr treatment) is 0.4 µM; in test [3] it was 0.6 µM.

Consider `CC(=O)c1c(Nc2cccc(Cl)c2)[nH]c2c(C)cccc2c1=O` [BD008], for which the values for the IC50 in test [1], in test [2] (48-hr treatment) and in test [3] were 1.64 µM, 7.2 µM and 6.4 µM, respectively.

On to `CC(=O)c1c(Nc2ccc(C)cc2)[nH]c2c([N+](=O)[O-])cccc2c1=O` [BD006], for which the IC50 in test [1] is 0.8 µM; in test [2] (48-hr treatment), 1.5 µM; in test [3] it was 1.1 µM.

Consider `CC(=O)c1c(Nc2ccc(F)c(F)c2F)[nH]c2c(F)cc(F)cc2c1=O` [BD004], for which the results for the half-inhibitory concentration (IC50) in test [2] (48-hr treatment) and in test [3] were 0.85 µM and 0.9 µM, respectively.

As to `CC(=O)c1c(Nc2ccc(F)cc2Cl)[nH]c2c(Cl)ccc(C)c2c1=O` [BD005], the concentration for half-maximal inhibition (IC50) in test [1] worked out at 0.28 µM; in test [2] (48-hr treatment) it was 0.6 µM; in test [3] it was 25 µM.

As to `CC(=O)c1c(Nc2ccc(Br)cc2)[nH]c2cc(Br)cc(Br)c2c1=O` [BD001], the 50% inhibitory concentration (IC50) is 0.21 µM in test [1], 1.5 µM in test [2] (48-hr treatment) and 1.8 µM in test [3].

In the case of `O=C(Nc1ccc(Cl)cc1Cl)c1c(Nc2ccccc2)[nH]c2c(Cl)cc(Cl)cc2c1=O` [BD030, 6,8-dichloro-4-oxo-2-phenylamino-1,4-dihydro-quinoline-3-carboxylic acid (2,4-dichloro-phenyl)-amide], the IC50 in test [2] (setting [5]) is 1 µM; in test [3] (Homo sapiens, MDA-MB-435S) it was 0.3 µM; with cancer cell lines, < 1 µM. For the same compound, the “neointima thickening compared with the non-balloon-injured right common carotid artery” value in test [4] (histology (FIG. 1c vs FIG. 1a)) is “slightly increased neointima thickening”. Also, in test [4] (dispersed in polyoxyethylated castor oil, histology (FIG. 1c vs FIG. 1b)), the “reduced neointima thickening compared with the balloon-injured left common carotid artery” value is “about 80%”.

Take `CC(=O)c1c(Nc2ccc(Cl)cc2Cl)[nH]c2c(Cl)ccc([N+](=O)[O-])c2c1=O` [BD010]: the 50% inhibitory concentration (IC50) in test [1] is 6.5 µM; in test [2] (48-hr treatment) it was 25 µM; in test [3] it was 12 µM.

Take `CCC(=O)c1c(Nc2cccc(Cl)c2Cl)[nH]c2c(Cl)ccc([N+](=O)[O-])c2c1=O` [BD033]: the results for the IC50 in test [1], in test [2] (48-hr treatment) and in test [3] were 0.137 µM, 3.2 µM and 4 µM, respectively.

Regarding `CC(=O)c1c(Nc2ccc(Br)cc2Cl)[nH]c2c([N+](=O)[O-])cc(Cl)cc2c1=O` [BD002], the IC50 turned out to be 0.4 µM in test [2] (48-hr treatment) and 0.3 µM in test [3].

For `O=C(Nc1ccc(Cl)cc1Cl)c1c(Nc2ccc(Cl)cc2Cl)[nH]c2c(Cl)cc(Cl)cc2c1=O` [BD031, 6,8-dichloro-2-(2,4-dichloro-phenylamino)-4-oxo-1,4-dihydro-quinoline-3-carboxylic acid (2,4-dichloro-phenyl)-amide], the IC50 in test [2] (setting [5]) is 0.21 µM; in test [3] (Homo sapiens, MDA-MB-435S), < 0.16 µM; in the test with cancer cell lines it was < 1 µM.

Regarding `CC(=O)c1c(Nc2ccc(F)cc2)[nH]c2c(F)cc(F)cc2c1=O` [BD007], the half-maximal inhibitory concentration (IC50) in test [1] came to 0.29 µM; in test [2] (48-hr treatment) it was 1.6 µM; in test [3], 1.1 µM.

For the compound `CCC(=O)c1c(Nc2ccc(Cl)cc2F)[nH]c2c(Cl)ccc([N+](=O)[O-])c2c1=O` [BD032], the half-inhibitory concentration (IC50) in test [1] turned out to be 0.14 µM; in test [2] (48-hr treatment), 3.3 µM; in test [3], 3.5 µM.

As to `CCC(=O)c1c(Nc2ccc(F)c(F)c2)[nH]c2c(Cl)ccc([N+](=O)[O-])c2c1=O` [BD034], the values for the IC50 in test [1], in test [2] (48-hr treatment) and in test [3] were 0.127 µM, 3.9 µM and 1.6 µM, respectively.

Source of the values: patent publication US8106071B2, “Compositions for treating hyperproliferative vascular disorders and cancers” (Biobud Co., Ltd., priority 2007, dated 2012).
